Assay results taken from PubChem BioAssay AID180 (DTP/NCI, 2004).
Several values for one entry are separate records, joined by “and”; a condition that tells them apart may be missing. Equal values may be shown once.

System: BDF1 mice, Adenocarcinoma 755 s.c., tumor weight T/C
Assay: NCI In Vivo Anticancer Drug Screen. Data for tumor model Adenocarcinoma 755 (subcutaneous) in B6D2F1 (BDF1) mice
Conditions: endpoint: mean tumor weight, higher = larger tumour
Method in brief: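 Transplantable tumor implanted; mice dosed with compound or vehicle; survival or tumor size recorded; ratio of treated to vehicle control reported.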

COc1ccc(-c2c(C)c(C(=O)O)nc(-c3ccc4c(O)c(OC)c5c(c4n3)=NC(C)(C)N=5)c2N)c(O)c1OC
T/C (dose: 2.5 mg/kg/injection, schedule: Q01DX011 (ip), vehicle: water): 26 % of control | T/C (dose: 2.5 mg/kg/injection, schedule: Q01DX011 (oral), vehicle: water): 6 % of control | T/C (dose: 2.5 mg/kg/injection, schedule: Q## X006 (ip), vehicle: water): 59 % of control | T/C (dose: 2.5 mg/kg/injection, schedule: Q## X006 (oral), vehicle: water): 43 % of control | T/C (dose: 2.5 mg/kg/injection, schedule: Q#A X022 (ip), vehicle: water): 51 % of control | T/C (dose: 5.0 mg/kg/injection, schedule: Q01DX005 (iv), vehicle: water): 58 % of control | T/C (dose: 5.0 mg/kg/injection, schedule: Q01DX006 (ip), vehicle: water): 64 % of control | T/C (dose: 5.0 mg/kg/injection, schedule: Q01DX011 (im), vehicle: water): 64 % of control | T/C (dose: 5.0 mg/kg/injection, schedule: Q01DX011 (ip), vehicle: water): 5 % of control | T/C (dose: 5.0 mg/kg/injection, schedule: Q01DX011 (oral), vehicle: water): 2 % of control | T/C (dose: 5.0 mg/kg/injection, schedule: Q01DX011 (sc), vehicle: water): 13 % of control | T/C (dose: 5.0 mg/kg/injection, schedule: Q## X006 (ip), vehicle: water): 57 % of control | T/C (dose: 5.0 mg/kg/injection, schedule: Q## X006 (oral), vehicle: water): 79 % of control | T/C (dose: 5.0 mg/kg/injection, schedule: Q#A X022 (ip), vehicle: water): 21 % of control | T/C (dose: 7.5 mg/kg/injection, schedule: Q01DX006 (ip), vehicle: water): 63 % of control | T/C (dose: 7.5 mg/kg/injection, schedule: Q#A X022 (ip), vehicle: water): 9 % of control | T/C (dose: 8.0 mg/kg/injection, schedule: Q01DX011 (ip), vehicle: water): 50 % of control | T/C (dose: 10.0 mg/kg/injection, schedule: Q01DX005 (iv), vehicle: water): 26 % of control | T/C (dose: 10.0 mg/kg/injection, schedule: Q01DX006 (ip), vehicle: water): 28 % of control | T/C (dose: 10.0 mg/kg/injection, schedule: Q01DX011 (im), vehicle: water): 13 % of control | T/C (dose: 10.0 mg/kg/injection, schedule: Q01DX011 (sc), vehicle: water): 15 % of control | T/C (dose: 10.0 mg/kg/injection, schedule: Q## X006 (ip), vehicle: water): 19 % of control | T/C (dose: 10.0 mg/kg/injection, schedule: Q## X006 (oral), vehicle: water): 44 % of control | T/C (dose: 12.0 mg/kg/injection, schedule: Q03DX004 (ip), vehicle: water): 62 % of control | T/C (dose: 13.0 mg/kg/injection, schedule: Q01DX011 (ip), vehicle: water): 10 % of control | T/C (dose: 15.0 mg/kg/injection, schedule: Q01DX005 (iv), vehicle: water): 6 % of control | T/C (dose: 15.0 mg/kg/injection, schedule: Q01DX011 (im), vehicle: water): 10 % of control | T/C (dose: 15.0 mg/kg/injection, schedule: Q01DX011 (sc), vehicle: water): 4 % of control | T/C (dose: 18.0 mg/kg/injection, schedule: Q03DX004 (ip), vehicle: water): 38 % of control | T/C (dose: 20.0 mg/kg/injection, schedule: Q01DX011 (ip), vehicle: water): 6 % of control | T/C (dose: 20.0 mg/kg/injection, schedule: Q## X006 (ip), vehicle: water): 39 % of control | T/C (dose: 20.0 mg/kg/injection, schedule: Q## X006 (oral), vehicle: water): 20 % of control | T/C (dose: 22.0 mg/kg/injection, schedule: Q07DX002 (ip), vehicle: water): 48 % of control | T/C (dose: 22.5 mg/kg/injection, schedule: Q01DX005 (iv), vehicle: water): 2 % of control | T/C (dose: 22.5 mg/kg/injection, schedule: Q01DX011 (im), vehicle: water): 1 % of control | T/C (dose: 27.0 mg/kg/injection, schedule: Q03DX004 (ip), vehicle: water): 4 % of control | T/C (dose: 34.0 mg/kg/injection, schedule: Q01DX001 (ip), vehicle: water): 45 % of control and 50 % of control | T/C (dose: 35.0 mg/kg/injection, schedule: Q07DX002 (ip), vehicle: water): 55 % of control | T/C (dose: 44.0 mg/kg/injection, schedule: Q01DX001 (ip), vehicle: water): 52 % of control and 57 % of control | T/C (dose: 50.0 mg/kg/injection, schedule: Q07DX002 (ip), vehicle: water): 8 % of control | T/C (dose: 67.0 mg/kg/injection, schedule: Q01DX001 (ip), vehicle: water): 18 % of control

CCCCn1cnc2c(SCc3ccncc3)nc(N)nc21
T/C (dose: 3.12 mg/kg/injection, schedule: Q01DX011 (ip), vehicle: methylcellulose (MC)): 35 % of control | T/C (dose: 6.25 mg/kg/injection, schedule: Q01DX011 (ip), vehicle: methylcellulose (MC)): 106 % of control | T/C (dose: 12.5 mg/kg/injection, schedule: Q01DX011 (ip), vehicle: methylcellulose (MC)): 19 % of control | T/C (dose: 25.0 mg/kg/injection, schedule: Q01DX011 (ip), vehicle: methylcellulose (MC)): 1 % of control and 13 % of control

COc1ccc(C[C@H](N)C(=O)NC2C(CO)OC(n3cnc4c(N(C)C)ncnc43)C2O)cc1 (some centres not stated)
T/C (dose: 9.94 mg/kg/injection, schedule: Q01DX011 (ip), vehicle: carboxymethylcellulose (CMC)): 104 % of control | T/C (dose: 13.25 mg/kg/injection, schedule: Q01DX011 (ip), vehicle: carboxymethylcellulose (CMC)): 119 % of control | T/C (dose: 17.06 mg/kg/injection, schedule: Q01DX011 (ip), vehicle: carboxymethylcellulose (CMC)): 73 % of control | T/C (dose: 19.88 mg/kg/injection, schedule: Q01DX011 (ip), vehicle: carboxymethylcellulose (CMC)): 174 % of control | T/C (dose: 23.0 mg/kg/injection, schedule: Q01DX011 (ip), vehicle: carboxymethylcellulose (CMC)): 67 % of control | T/C (dose: 26.5 mg/kg/injection, schedule: Q01DX011 (ip), vehicle: carboxymethylcellulose (CMC)): 70 % of control | T/C (dose: 31.8 mg/kg/injection, schedule: Q01DX011 (ip), vehicle: carboxymethylcellulose (CMC)): 47 % of control and 48 % of control | T/C (dose: 34.13 mg/kg/injection, schedule: Q01DX011 (ip), vehicle: carboxymethylcellulose (CMC)): 57 % of control | T/C (dose: 45.0 mg/kg/injection, schedule: Q01DX011 (ip), vehicle: carboxymethylcellulose (CMC)): 70 % of control | T/C (dose: 68.25 mg/kg/injection, schedule: Q01DX011 (ip), vehicle: carboxymethylcellulose (CMC)): 50 % of control | T/C (dose: 79.5 mg/kg/injection, schedule: Q01DX011 (ip), vehicle: carboxymethylcellulose (CMC)): 14 % of control | T/C (dose: 90.0 mg/kg/injection, schedule: Q01DX011 (ip), vehicle: carboxymethylcellulose (CMC)): 51 % of control

[N-]=[N+]=C1C(=O)NC(=O)N2C3CC(O)C(COC12)O3 (configuration not stated)
T/C (dose: 30.0 mg/kg/injection, schedule: Q01DX011 (ip), vehicle: saline): 87 % of control | T/C (dose: 60.0 mg/kg/injection, schedule: Q01DX011 (ip), vehicle: saline): 80 % of control | T/C (dose: 120.0 mg/kg/injection, schedule: Q01DX011 (ip), vehicle: saline): 97 % of control | T/C (dose: 240.0 mg/kg/injection, schedule: Q01DX011 (ip), vehicle: saline): 68 % of control | T/C (dose: 400.0 mg/kg/injection, schedule: Q01DX011 (ip), vehicle: carboxymethylcellulose (CMC)): 40 % of control
